Assay results taken from the NIST ThermoML archive (doi:10.1021/je700521t).
± gives the expanded uncertainty stated by the source.

Test: refractive index (Na D-line) (dimensionless); xn = mol fraction of the nth substance listed
Conditions: 101 kPa, Liquid, Standard Abbe refractometry

CCCCn1cc[n+](C)c1.[O-][Cl+3]([O-])([O-])[O-] [1-butyl-3-methylimidazolium perchlorate] + CCO
refractive index
Conditions	x2 = 0.1	x2 = 0.165	x2 = 0.291	x2 = 0.401	x2 = 0.479
283.15 K	1.475 ± 0.001	1.4725 ± 0.001	1.468 ± 0.0009	1.4625 ± 0.0008	1.459 ± 0.0008
288.15 K	1.4738 ± 0.001	1.4715 ± 0.001	1.4667 ± 0.0009	1.4612 ± 0.0008	1.4575 ± 0.0008
293.15 K	1.4725 ± 0.001	1.47 ± 0.001	1.4655 ± 0.0009	1.4595 ± 0.0008	1.4563 ± 0.0008
298.15 K	1.471 ± 0.001	1.4687 ± 0.001	1.464 ± 0.0009	1.458 ± 0.0008	1.455 ± 0.0008
303.15 K	1.4697 ± 0.001	1.4673 ± 0.001	1.4627 ± 0.0009	1.4568 ± 0.0008	1.4535 ± 0.0008
308.15 K	1.4685 ± 0.001	1.466 ± 0.001	1.4615 ± 0.0009	1.4555 ± 0.0008	–
313.15 K	1.467 ± 0.0011	1.4648 ± 0.001	1.46 ± 0.0009	1.454 ± 0.0008	–
318.15 K	1.4655 ± 0.001	1.4637 ± 0.001	1.4587 ± 0.0009	–	–
323.15 K	1.4645 ± 0.001	1.462 ± 0.001	1.457 ± 0.0009	–	–
328.15 K	1.463 ± 0.0011	1.4608 ± 0.001	1.456 ± 0.0009	–	–
333.15 K	1.4615 ± 0.001	1.4595 ± 0.001	1.4545 ± 0.0009	–	–
338.15 K	1.4603 ± 0.001	1.458 ± 0.001	1.4532 ± 0.0009	–	–
343.15 K	1.459 ± 0.001	1.4565 ± 0.001	1.4518 ± 0.0009	–	–

CCCCCCCC[n+]1ccn(C)c1.F[B-](F)(F)F [1-methyl-3-octylimidazolium tetrafluoroborate] + CCO
refractive index
Conditions	x2 = 0.081	x2 = 0.161	x2 = 0.315	x2 = 0.511	x2 = 0.612	x2 = 0.753
283.15 K	1.4335 ± 0.0006	1.4315 ± 0.0006	1.43 ± 0.0006	1.4265 ± 0.0006	1.4225 ± 0.0006	1.4132 ± 0.0006
288.15 K	1.4323 ± 0.0006	1.4305 ± 0.0006	1.4288 ± 0.0006	1.425 ± 0.0006	1.4212 ± 0.0006	1.4125 ± 0.0006
293.15 K	1.431 ± 0.0006	1.4292 ± 0.0006	1.4273 ± 0.0006	1.4237 ± 0.0006	1.42 ± 0.0006	1.411 ± 0.0006
298.15 K	1.4295 ± 0.0006	1.428 ± 0.0006	1.426 ± 0.0006	1.423 ± 0.0006	1.4185 ± 0.0006	1.4098 ± 0.0006
303.15 K	1.4284 ± 0.0006	1.427 ± 0.0006	1.4245 ± 0.0006	1.4208 ± 0.0006	1.4172 ± 0.0006	1.4085 ± 0.0006
308.15 K	1.4268 ± 0.0006	1.4255 ± 0.0006	1.423 ± 0.0006	1.4195 ± 0.0006	1.416 ± 0.0006	1.4072 ± 0.0006
313.15 K	1.4255 ± 0.0006	1.424 ± 0.0006	1.4219 ± 0.0006	1.418 ± 0.0006	1.4143 ± 0.0006	1.407 ± 0.0006
318.15 K	1.424 ± 0.0006	1.4225 ± 0.0006	1.4205 ± 0.0006	1.4168 ± 0.0006	1.413 ± 0.0006	1.4065 ± 0.0006
323.15 K	1.4225 ± 0.0006	1.421 ± 0.0006	1.419 ± 0.0006	1.415 ± 0.0006	1.4115 ± 0.0006	1.4055 ± 0.0006
328.15 K	1.4213 ± 0.0006	1.42 ± 0.0006	1.4178 ± 0.0006	1.4137 ± 0.0006	1.41 ± 0.0006	1.4045 ± 0.0006
333.15 K	1.4205 ± 0.0006	1.4188 ± 0.0006	1.416 ± 0.0006	1.4125 ± 0.0006	1.4085 ± 0.0006	1.404 ± 0.0006
338.15 K	1.419 ± 0.0006	1.4173 ± 0.0006	1.4145 ± 0.0006	1.4118 ± 0.0006	1.4078 ± 0.0006	1.4033 ± 0.0006
343.15 K	1.4175 ± 0.0006	1.416 ± 0.0006	1.4132 ± 0.0006	1.411 ± 0.0006	1.4065 ± 0.0006	1.402 ± 0.0006
